Measured values taken from patent US20070128217A1 (priority 2003, published 2007).

Assays:
[1] = test system: antibodies in sera from SARS patients (sera 1a, 1b, 2, 6, 37, 62, London, SARS-yellow, SARS-green); format: binding, human; design: Binding of serum 6 to linear peptides of protein X1 of SARS-CoV Urbani / Binding of serum 37 to linear peptides of protein X1 of SARS-CoV Urbani / Binding of serum 6 to looped/cyclic peptide (PEPSCAN-ELISA) / Binding of serum 37 to looped/cyclic peptide (PEPSCAN-ELISA) / Binding of serum 37 to looped/cyclic peptides of protein X1 of SARS-CoV Urbani / Binding of serum 6 to linear peptides of protein X2 / Binding of serum 37 to linear peptides of protein X2 / Binding of serum 37 to looped/cyclic peptides of protein X2 of SARS-CoV Urbani / Binding of serum 6 to linear peptides of protein M of SARS-CoV Urbani / Binding of serum 37 to linear peptides of protein M of SARS-CoV Urbani / Binding of serum 6 to looped/cyclic peptides of protein M of SARS-CoV Urbani / Binding of serum 37 to looped/cyclic peptides of protein M of SARS-CoV Urbani / Binding of serum 6 to linear peptides of protein X3 of SARS-CoV Urbani / Binding of serum 37 to linear peptides of protein X3 of SARS-CoV Urbani / Binding of serum 37 to looped/cyclic peptides of protein X3 of SARS-CoV Urbani / Binding of serum 6 to linear peptides of protein X4 of SARS-CoV Urbani / Binding of serum 37 to linear peptides of protein X4 of SARS-CoV Urbani / Binding of serum 37 to looped/cyclic peptides of protein X4 of SARS-CoV Urbani / Binding of serum 6 to linear peptides of protein X5 of SARS-CoV Urbani / Binding of serum 37 to linear peptides of protein X5 of SARS-CoV Urbani / Binding of serum 37 to looped/cyclic peptides of protein X5 of SARS-CoV Urbani / Binding of serum 6 to linear peptides of protein N of SARS-CoV Urbani / Binding of serum 37 to linear peptides of protein N of SARS-CoV Urbani / Binding of serum 6 to linear peptide (PEPSCAN-ELISA) / Binding of serum 1a to looped/cyclic peptides of protein N of SARS-CoV Urbani / Binding of serum 1b to looped/cyclic peptides of protein N of SARS-CoV Urbani / Binding of serum 2 to looped/cyclic peptides of protein N of SARS-CoV Urbani / Binding of serum 6 to looped/cyclic peptides of protein N of SARS-CoV Urbani / Binding of serum 37 to looped/cyclic peptides of protein N of SARS-CoV Urbani / Binding of serum 62 to looped/cyclic peptides of protein N of SARS-CoV Urbani / Binding of serum London to looped/cyclic peptides of protein N of SARS-CoV Urbani / Binding of serum SARS-green to looped/cyclic peptides of protein N of SARS-CoV Urbani: unit not given here
[2] = test system: control sera (pooled serum of ten healthy LUMC hospital workers; commercial negative donor pooled serum from the Dutch bloodbank); format: binding, human; design: Binding of Control serum LUMC to linear peptides / Binding of Control serum Blood-bank to linear peptides / Binding of Control serum LUMC to looped peptides / Binding of Control Serum Blood-Bank to Looped peptides / Binding of Control serum LUMC to linear peptides of the protein M of SARS-CoV Urbani / Binding of Control serum Blood-bank to linear peptides of the protein M of SARS-CoV Urbani / Binding of Control serum LUMC to looped peptides of the protein M of SARS-CoV Urbani / Binding of Control Serum Blood-Bank to Looped peptides of the protein M of SARS-CoV Urbani: unit not given here
[3] = test system: rabbit serum obtained by immunizing a rabbit with the SARS-CoV strain Frankfurt 1; format: binding; design: Binding of a rabbit serum to linear peptides / Binding of a rabbit serum to looped peptides / Rabbit serum linear peptides / Rabbit serum looped peptides / Binding of a rabbit serum to linear peptides of protein N of SARS-CoV Urbani (Rabbit serum linear peptides) / Binding of a rabbit serum to looped/cyclic peptides of protein N of SARS-CoV Urbani (Rabbit serum looped peptides): unit not given here

| Sequence | Binding of Control Serum Blood-Bank to Looped peptides [2] | Binding of Control serum Blood-bank to linear peptides [2] | Binding of Control serum LUMC to linear peptides [2] | Binding of Control serum LUMC to looped peptides [2] | Rabbit serum linear peptides [3] | Rabbit serum looped peptides [3] | Binding of serum 1a to linear peptides of protein X4 of SARS-CoV Urbani [1] | Binding of serum 1a to looped/cyclic peptides of protein X4 of SARS-CoV Urbani [1] | Binding of serum 1b to linear peptides of protein X4 of SARS-CoV Urbani [1] | Binding of serum 1b to looped/cyclic peptides of protein X4 of SARS-CoV Urbani [1] | Binding of serum 2 to linear peptides of protein X4 of SARS-CoV Urbani [1] | Binding of serum 2 to looped/cyclic peptides of protein X4 of SARS-CoV Urbani [1] | Binding of serum 6 to linear peptides of protein X4 of SARS-CoV Urbani [1] | Binding of serum 6 to looped/cyclic peptides of protein X4 of SARS-CoV Urbani [1] | Binding of serum 37 to linear peptides of protein X4 of SARS-CoV Urbani [1] | Binding of serum 37 to looped/cyclic peptides of protein X4 of SARS-CoV Urbani [1] | Binding of serum 62 to linear peptides of protein X4 of SARS-CoV Urbani [1] | Binding of serum 62 to looped/cyclic peptides of protein X4 of SARS-CoV Urbani [1] | Binding of serum London to linear peptides of protein X4 of SARS-CoV Urbani [1] | Binding of serum London to looped/cyclic peptides of protein X4 of SARS-CoV Urbani [1] | further results |
| --- | --- | --- | --- | --- | --- | --- | --- | --- | --- | --- | --- | --- | --- | --- | --- | --- | --- | --- | --- | --- | --- |
| STAWLCALGKVLPFH | 0.5 | 0.9 | 0.6 | 0.6 | 0.5 | 0.7 | – | – | – | – | – | – | – | – | – | – | – | – | – | – | Binding of serum 1a to linear peptides of protein X5 of SARS-CoV Urbani [1]: 0.8; Binding of serum 1a to looped/cyclic peptides of protein X5 of SARS-CoV Urbani [1]: 0.6; Binding of serum 1b to linear peptides of protein X5 of SARS-CoV Urbani [1]: 0.6; Binding of serum 1b to looped/cyclic peptides of protein X5 of SARS-CoV Urbani [1]: 0.4; Binding of serum 2 to linear peptides of protein X5 of SARS-CoV Urbani [1]: 0.6; Binding of serum 2 to looped/cyclic peptides of protein X5 of SARS-CoV Urbani [1]: 0.6; Binding of serum 6 to linear peptides of protein X5 of SARS-CoV Urbani [1]: 0.7; Binding of serum 6 to looped/cyclic peptides of protein X5 of SARS-CoV Urbani [1]: 0.5; Binding of serum 37 to linear peptides of protein X5 of SARS-CoV Urbani [1]: 0.7; Binding of serum 37 to looped/cyclic peptides of protein X5 of SARS-CoV Urbani [1]: 0.4; Binding of serum 62 to linear peptides of protein X5 of SARS-CoV Urbani [1]: 0.8; Binding of serum 62 to looped/cyclic peptides of protein X5 of SARS-CoV Urbani [1]: 0.7; Binding of serum London to linear peptides of protein X5 of SARS-CoV Urbani [1]: 0.7; Binding of serum London to looped/cyclic peptides of protein X5 of SARS-CoV Urbani [1]: 0.2; Binding of serum SARS-green to linear peptides of protein X5 of SARS-CoV Urbani [1]: 0.6; Binding of serum SARS-green to looped/cyclic peptides of protein X5 of SARS-CoV Urbani [1]: 0.3; Binding of serum SARS-yellow to linear peptides of protein X5 of SARS-CoV Urbani [1]: 0.3; Binding of serum SARS-yellow to looped/cyclic peptides of protein X5 of SARS-CoV Urbani [1]: 1.0 |
| STHFAFACADGTRHT | 0.7 | 0.6 | 0.5 | 0.9 | 0.4 | 0.4 | 0.7 | 0.7 | 0.6 | 0.5 | 0.5 | 0.6 | 0.7 | 0.5 | 0.7 | 0.6 | 0.8 | 0.5 | 0.8 | 0.3 | Binding of serum SARS-green to linear peptides of protein X4 of SARS-CoV Urbani [1]: 0.6; Binding of serum SARS-green to looped/cyclic peptides of protein X4 of SARS-CoV Urbani [1]: 0.5; Binding of serum SARS-yellow to linear peptides of protein X4 of SARS-CoV Urbani [1]: 0.3; Binding of serum SARS-yellow to looped/cyclic peptides of protein X4 of SARS-CoV Urbani [1]: 0.6 |
| SVSPKLFIRQEEVQQ | 0.4 | 0.6 | 0.3 | 0.7 | 0.4 | 0.3 | 0.7 | 0.7 | 0.5 | 0.6 | 0.3 | 0.6 | 0.5 | 0.4 | 0.7 | 0.7 | 0.7 | 0.6 | 0.6 | 0.3 | Binding of serum SARS-green to linear peptides of protein X4 of SARS-CoV Urbani [1]: 0.4; Binding of serum SARS-green to looped/cyclic peptides of protein X4 of SARS-CoV Urbani [1]: 0.7; Binding of serum SARS-yellow to linear peptides of protein X4 of SARS-CoV Urbani [1]: 0.3; Binding of serum SARS-yellow to looped/cyclic peptides of protein X4 of SARS-CoV Urbani [1]: 0.4 |
